In EPA's ToxRefDB 2:

Key:
mouse [1] = conditions: Carcinogenicity, b6c3f1, Dermal, Topical, dose end: 2 year, group: systemic
rat [2] = conditions: Subchronic oral toxicity in rodents, fischer, Dermal, Topical, dose end: 13 week, group: systemic
mouse [3] = conditions: Prenatal developmental toxicity study, cd1, Injection, Intravenous, dose end: 12 GD
rat [4] = conditions: Combined chronic toxicity/carcinogenicity; fischer; Dermal; Topical; dose end: 2 year; group: systemic; systemic / pathology microscopic / pituitary gland / adenoma
rat [5] = conditions: Prenatal developmental toxicity study, sprague dawley, Oral, Gavage/Intubation, dose end: 15 GD
rat [6] = conditions: Subchronic dermal toxicity, sprague dawley, Topical, dose end: 91 day, group: systemic, systemic / in life observation / clinical signs / erythema + systemic / in life observation / clinical signs / scabbing + systemic / in life…
rat [7] = conditions: Prenatal developmental toxicity study, other, Oral, Gavage/Intubation, dose end: 15 GD
rat [8] = conditions: Carcinogenicity, fischer, Oral, Feed, dose end: 103 week, group: systemic
mouse [9] = conditions: Subchronic oral toxicity in rodents, b6c3f1, Feed, dose end: 13 week, group: systemic, systemic / in life observation / body weight / body weight gain
mouse [10] = conditions: Carcinogenicity; b6c3f1; Oral; Feed; dose end: 103 week; group: systemic; systemic / pathology microscopic / kidney / vacuolization
rat [11] = conditions: Subchronic oral toxicity in rodents, fischer, Feed, dose end: 13 week, group: systemic, systemic / in life observation / body weight / body weight gain
rat [12] = conditions: Combined chronic toxicity/carcinogenicity, sprague dawley, Oral, Feed, dose end: 24 month, group: systemic
mouse [13] = conditions: Carcinogenicity; cd1; Oral; Feed; dose end: 78 week; group: systemic; systemic / pathology microscopic / kidney / nephropathy
dog [14] = conditions: Chronic toxicity, beagle, Oral, Capsule, dose end: 52 week, group: systemic
dog [15] = conditions: Subchronic oral toxicity in nonrodent, beagle, Feed, dose end: 90 day, group: systemic
rat [16] = conditions: Subchronic oral toxicity in rodents, sprague dawley, Feed, dose end: 90 day, group: systemic
rat [17] = conditions: Multigenerational reproductive toxicity study, sprague dawley, Oral, Feed, dose end: 2 generation
rat [18] = conditions: Prenatal developmental toxicity study, sprague dawley, Oral, Gavage/Intubation, dose end: 17 GD
rat [19] = conditions: Prenatal developmental toxicity study, sprague dawley, Injection, Intramuscular, dose end: 13 GD, group: developmental
rat [20] = conditions: Subchronic oral toxicity in rodents, wistar, Feed, dose end: 13 week, group: systemic
[21] = systemic / in life observation / body weight / body weight + systemic / in life observation / mortality / mortality
[22] = systemic / pathology microscopic / lung / congestion + systemic / pathology microscopic / pancreas / vacuolization + systemic / in life …
[23] = group: developmental, developmental / developmental malformation / general / [other] + systemic / in life observation / body weight / fetal weight
[24] = group: developmental, systemic / in life observation / body weight / fetal weight
[25] = group: maternal, reproductive / reproductive performance / resorptions / resorptions + systemic / in life observation / body weight / body weight gain + …
[26] = group: maternal, systemic / in life observation / body weight / body weight
[27] = group: maternal, systemic / in life observation / body weight / body weight + systemic / in life observation / clinical signs / body surface staining + …
[28] = group: developmental, developmental / developmental malformation / bone / ossification sites + developmental / developmental malformation / bone / full …
[29] = group: maternal, systemic / in life observation / body weight / body weight + systemic / in life observation / food consumption / food consumption + systemic…
[30] = systemic / in life observation / body weight / body weight gain + systemic / pathology microscopic / eye / cataract + systemic / pathology …
[31] = systemic / clinical chemistry / gamma glutamyl transferase (ggt) / gamma glutamyl transferase (ggt)
[32] = systemic / in life observation / body weight / body weight gain + systemic / organ weight / liver / relative to body weight + systemic / …
[33] = systemic / clinical chemistry / lipids / phospholipids
[34] = systemic / clinical chemistry / aspartate aminotransferase (ast/sgot) / aspartate aminotransferase (ast/sgot) + systemic / clinical …
[35] = systemic / clinical chemistry / cholesterol / cholesterol + systemic / clinical chemistry / lipids / phospholipids + systemic / hematology…
[36] = group: offspring, systemic / in life observation / body weight / offspring (pup) weight
[37] = group: parental, systemic / in life observation / body weight / body weight + systemic / in life observation / body weight / body weight gain + systemic / in…
[38] = group: developmental, developmental / developmental malformation / bone / [other]
[39] = group: developmental, developmental / developmental malformation / bone / [other] + developmental / developmental malformation / other / other + developmental / …
[40] = group: maternal, systemic / in life observation / body weight / body weight + systemic / in life observation / body weight / body weight gain + systemic / in…
[41] = developmental / developmental malformation / mouth / jaw / cleft palate
[42] = developmental / developmental malformation / mouth / jaw / cleft palate + systemic / in life observation / body weight / fetal weight
[43] = systemic / in life observation / clinical signs / lack of coordination + systemic / in life observation / clinical signs / voluntary muscle …

## OCCCl [2-Chloroethanol]
Mouse [1]; [21]
  LEL: 180 mg/kg/day
  NEL: < 180 mg/kg/day
Mouse [1]; systemic / pathology microscopic / skin / inflammation + systemic / pathology microscopic / skin / ulcer
  LOAEL: 411 mg/kg/day
Mouse [1]; systemic / pathology microscopic / skin / inflammation + systemic / pathology microscopic / skin / ulcer + systemic / in life observation / …
  NOAEL: 180 mg/kg/day
Rat [2]; systemic / pathology microscopic / lung / congestion + systemic / pathology microscopic / pancreas / vacuolization
  LOAEL: 500 mg/kg/day
Rat [2]; [22]
  NEL: 125 mg/kg/day
  NOAEL: 250 mg/kg/day
Rat [2]; systemic / pathology microscopic / pancreas / vacuolization + systemic / in life observation / mortality / mortality
  LEL: 250 mg/kg/day
Mouse [3]; [23]
  LOAEL: > 120 mg/kg/day
  NOAEL: ≥ 120 mg/kg/day
Mouse [3]; [24]
  LEL: 60 mg/kg/day
  NEL: < 60 mg/kg/day
Mouse [3]; [25]
  LEL: 120 mg/kg/day
  LOAEL: > 120 mg/kg/day
  NEL: 60 mg/kg/day
  NOAEL: ≥ 120 mg/kg/day
Rat [4]
  LEL: 100 mg/kg/day
  LOAEL: > 100 mg/kg/day
  NEL: 50 mg/kg/day
  NOAEL: ≥ 100 mg/kg/day

## Cc1cc(C)n(CO)n1 [(3,5-Dimethyl-1H-pyrazol-1-yl)methanol]
Rat [5]; [24]
  LEL: 400 mg/kg/day
  LOAEL: 400 mg/kg/day
  NEL: 200 mg/kg/day
  NOAEL: 200 mg/kg/day
Rat [5]; [26]
  LOAEL: 100 mg/kg/day
  NOAEL: < 100 mg/kg/day
Rat [5]; [27]
  LEL: 100 mg/kg/day
  NEL: < 100 mg/kg/day
Rat [6]
  LEL: 50 mg/kg/day
  LOAEL: 50 mg/kg/day
  NEL: < 50 mg/kg/day
  NOAEL: < 50 mg/kg/day
Rat [7]; [28]
  LEL: 150 mg/kg/day
  LOAEL: 150 mg/kg/day
  NEL: 75 mg/kg/day
  NOAEL: 75 mg/kg/day
Rat [7]; group: maternal, systemic / in life observation / body weight / body weight + systemic / in life observation / food consumption / food consumption
  LOAEL: 150 mg/kg/day
Rat [7]; [29]
  LEL: 150 mg/kg/day
  NEL: 75 mg/kg/day
  NOAEL: 75 mg/kg/day

## OC[C@@H](O)[C@@H](O)[C@H](O)[C@H](O)CO [D-Mannitol]
Rat [8]; systemic / in life observation / body weight / body weight gain
  LOAEL: 2500 mg/kg/day
Rat [8]; [30]
  LEL: 1250 mg/kg/day
  NEL: < 1250 mg/kg/day
  NOAEL: 1250 mg/kg/day
Mouse [9]
  LEL: > 7500 mg/kg/day
  LOAEL: > 7500 mg/kg/day
  NEL: ≥ 7500 mg/kg/day
  NOAEL: ≥ 7500 mg/kg/day
Mouse [10]
  LEL: 3750 mg/kg/day
  LOAEL: 3750 mg/kg/day
  NEL: < 3750 mg/kg/day
  NOAEL: < 3750 mg/kg/day
Rat [11]
  LEL: 2500 mg/kg/day
  LOAEL: 2500 mg/kg/day
  NEL: 1250 mg/kg/day
  NOAEL: 1250 mg/kg/day

## CC(COc1ccc(Oc2ccccc2)cc1)Oc1ccccn1 (stereo not given) [Pyriproxyfen]
Rat [12]; [31]
  LEL: 7.04 mg/kg/day
  NEL: < 7.04 mg/kg/day
Rat [12]; systemic / clinical chemistry / gamma glutamyl transferase (ggt) / gamma glutamyl transferase (ggt) + systemic / in life observation / body …
  NOAEL: 35.1 mg/kg/day
Rat [12]; systemic / in life observation / body weight / body weight
  LOAEL: 183 mg/kg/day
Mouse [13]
  LEL: 420 mg/kg/day
  LOAEL: 420 mg/kg/day
  NEL: 84 mg/kg/day
  NOAEL: 84 mg/kg/day
Dog [14]; systemic / in life observation / body weight / body weight gain + systemic / clinical chemistry / cholesterol / cholesterol + systemic / …
  LEL: 100 mg/kg/day
Dog [14]; systemic / in life observation / body weight / body weight gain + systemic / organ weight / liver / relative to body weight
  LOAEL: 300 mg/kg/day
Dog [14]; [32]
  NEL: 30 mg/kg/day
  NOAEL: 100 mg/kg/day
Dog [15]; [33]
  LEL: 100 mg/kg/day
  NEL: < 100 mg/kg/day
Dog [15]; systemic / pathology microscopic / liver / hypertrophy + systemic / clinical chemistry / alpha-1 globulin / alpha-1 globulin + systemic / …
  NOAEL: 100 mg/kg/day
Dog [15]; systemic / pathology microscopic / liver / hypertrophy + systemic / organ weight / liver / absolute + systemic / organ weight / liver / …
  LOAEL: 300 mg/kg/day
Rat [16]; [34]
  LEL: 23.5 mg/kg/day
  NEL: < 23.5 mg/kg/day
Rat [16]; [35]
  LOAEL: 118 mg/kg/day
  NOAEL: 23.5 mg/kg/day
Rat [17]; [36]
  LEL: 453 mg/kg/day
  LOAEL: 453 mg/kg/day
  NEL: 87 mg/kg/day
  NOAEL: 87 mg/kg/day
Rat [17]; [37]
  LOAEL: 453 mg/kg/day
  NEL: 18 mg/kg/day
  NOAEL: 87 mg/kg/day
Rat [17]; group: parental, systemic / organ weight / liver / relative to body weight + systemic / pathology microscopic / kidney / inflammation + systemic / organ …
  LEL: 87 mg/kg/day
Rat [18]; [38]
  LEL: 300 mg/kg/day
  LOAEL: 300 mg/kg/day
Rat [18]; [39]
  NEL: 100 mg/kg/day
  NOAEL: 100 mg/kg/day
Rat [18]; [40]
  LEL: 300 mg/kg/day
  LOAEL: 300 mg/kg/day
  NEL: 100 mg/kg/day
  NOAEL: 100 mg/kg/day

## C[C@]12C=CC(=O)C=C1CC[C@H]1[C@@H]3C[C@@H](O)[C@](O)(C(=O)CO)[C@@]3(C)C[C@H](O)[C@@]12F [Triamcinolone]
Rat [19]; [41]
  LEL: 10 mg/kg/day
  NEL: < 10 mg/kg/day
Rat [19]; [42]
  LOAEL: > 40 mg/kg/day
  NOAEL: ≥ 40 mg/kg/day

## CC1(C)[C@H](C(=O)O[C@H](C#N)c2cccc(Oc3ccccc3)c2)[C@@H]1/C=C(\Cl)C(F)(F)F [gamma-Cyhalothrin]
Rat [20]; [43]
  LOAEL: 6.6 mg/kg/day
  NEL: 0.7 mg/kg/day
  NOAEL: 3.4 mg/kg/day
Rat [20]; systemic / organ weight / liver / relative to body weight
  LEL: 3.4 mg/kg/day
